# Results as given in PMC5222342, “Leukotriene B₄ Metabolism and p70S6 Kinase 1 Inhibitors: PF-4708671 but Not LY2584702 Inhibits CYP4F3A and the ω-Oxidation of Leukotriene B₄ In Vitro and In Cellulo” (PLoS ONE, 2017).
# Tests used:
# CYP4F3A [1] = target: T1, CYP4F3A (Homo sapiens, UniProt Q08477); test: recombinant CYP4F3A LTB4 omega-oxidation assay, HPLC; Michaelis-Menten and Lineweaver-Burk kinetics; type: biochemical; set-up: gene CYP4F3; human recombinant CYP4F3A
# T1 sequence (Q08477 1-520): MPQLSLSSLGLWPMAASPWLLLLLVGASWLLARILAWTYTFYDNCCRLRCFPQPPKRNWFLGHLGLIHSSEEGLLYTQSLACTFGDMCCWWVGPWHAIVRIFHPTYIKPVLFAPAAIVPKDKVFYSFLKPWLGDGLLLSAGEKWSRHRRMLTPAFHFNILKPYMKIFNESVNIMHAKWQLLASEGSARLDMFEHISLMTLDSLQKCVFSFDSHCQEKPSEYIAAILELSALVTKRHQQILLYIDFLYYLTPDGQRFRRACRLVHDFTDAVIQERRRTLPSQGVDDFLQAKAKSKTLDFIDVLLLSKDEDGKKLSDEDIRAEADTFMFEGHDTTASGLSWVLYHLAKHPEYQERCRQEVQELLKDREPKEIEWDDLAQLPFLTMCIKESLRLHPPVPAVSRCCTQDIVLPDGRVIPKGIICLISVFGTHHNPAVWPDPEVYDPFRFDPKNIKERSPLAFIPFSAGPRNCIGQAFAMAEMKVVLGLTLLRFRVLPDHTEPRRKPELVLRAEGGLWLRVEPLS
# CYP4F3A [2] = target: T1, CYP4F3A; set-up: gene CYP4F3
IC50 (CYP4F3A [1]) [nM],Structure (SMILES),"omega-oxidation of LTB4 (1-20 uM) by recombinant CYP4F3A, HPLC, Michaelis-Menten (CYP4F3A [2])"
~750,CCc1cncnc1N1CCN(Cc2nc3cc(C(F)(F)F)ccc3[nH]2)CC1 [PF-4708671],–
–,CCCCC/C=C\C[C@@H](O)/C=C/C=C/C=C\[C@@H](O)CCCC(=O)O [LTB4],Human recombinant CYP4F3A was incubated with increasing concentrations of PF-4708671 before the addition of LTB4 at different concentrations
